The results in this text go back to BindingDB's records for patent US11752155 (Rugen Holdings (Cayman), 2023).

The target in the data set is hERG (Potassium voltage-gated channel subfamily H member 2) (Homo sapiens, UniProt Q12809). Nature of the data set: hERG Channel Inhibition. Particulars: HEK293 cells stably expressing hERG channel, pH 7.35. On the technique in general: The hERG channel carries a current that helps repolarise heart muscle cells.
hERG (Potassium voltage-gated channel subfamily H member 2), sequence (Q12809 whole entry): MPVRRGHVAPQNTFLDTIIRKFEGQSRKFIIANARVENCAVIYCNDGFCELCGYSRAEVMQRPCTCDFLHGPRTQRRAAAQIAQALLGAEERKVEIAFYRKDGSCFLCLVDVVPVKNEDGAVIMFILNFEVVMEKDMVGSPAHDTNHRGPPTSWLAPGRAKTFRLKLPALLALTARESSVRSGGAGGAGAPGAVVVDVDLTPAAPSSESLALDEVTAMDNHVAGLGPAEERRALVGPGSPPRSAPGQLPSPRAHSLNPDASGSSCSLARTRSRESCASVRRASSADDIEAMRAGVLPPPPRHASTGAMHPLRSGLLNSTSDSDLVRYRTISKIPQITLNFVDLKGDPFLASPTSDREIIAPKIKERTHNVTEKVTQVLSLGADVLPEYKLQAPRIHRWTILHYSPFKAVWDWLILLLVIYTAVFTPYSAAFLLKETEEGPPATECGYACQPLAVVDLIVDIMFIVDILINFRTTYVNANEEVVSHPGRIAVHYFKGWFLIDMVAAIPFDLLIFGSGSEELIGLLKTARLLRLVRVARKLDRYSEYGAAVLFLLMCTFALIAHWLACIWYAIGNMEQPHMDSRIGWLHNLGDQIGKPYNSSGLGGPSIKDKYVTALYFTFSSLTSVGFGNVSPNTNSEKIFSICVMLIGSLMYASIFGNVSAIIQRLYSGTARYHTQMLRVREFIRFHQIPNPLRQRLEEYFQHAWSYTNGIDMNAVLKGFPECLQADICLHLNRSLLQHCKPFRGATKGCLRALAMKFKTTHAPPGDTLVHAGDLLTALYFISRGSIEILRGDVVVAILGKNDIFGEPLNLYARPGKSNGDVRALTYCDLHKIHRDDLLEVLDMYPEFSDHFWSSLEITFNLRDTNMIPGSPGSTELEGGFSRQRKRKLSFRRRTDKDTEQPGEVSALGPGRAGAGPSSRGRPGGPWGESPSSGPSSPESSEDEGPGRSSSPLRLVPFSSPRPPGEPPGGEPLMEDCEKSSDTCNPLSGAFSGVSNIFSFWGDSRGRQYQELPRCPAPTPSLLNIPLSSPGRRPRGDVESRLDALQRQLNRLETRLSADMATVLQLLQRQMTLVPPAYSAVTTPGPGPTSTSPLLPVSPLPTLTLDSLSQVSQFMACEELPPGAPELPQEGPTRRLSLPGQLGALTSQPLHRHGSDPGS

Method: The assay was performed on hERG channel stably expressed in HEK293 cells. The cells were cultured at 37° C. in a humidified CO2 incubator in the growth medium consisting of DMEM, 10% fetal bovine serum and antibiotics. Prior to the assay, the cells were seeded onto a 12-mm PDL-coated glass coverslip and cultured in a 35-mm Petri dish. […] Giga-seal was maintained during the test. […] Whole-cell hERG currents were recorded following the Petroski protocol: the cell was held at −80 mV, and the voltage step jumped from −80 to 30 mV and stay for 2 seconds with a 20-millisecond prepulse at −40 mV. After depolarization, the voltage was decreased to −40 mV and stay for 2 seconds, and returned back to −80 mV. Test compound was applied by quartz capillary tubes tip (200 m inner diameter), and the flow rate was controlled at 2-3 mL/min with OctaFlow perfusion system. Different concentrations of the compound were applied to the cells for 5 minutes and the hERG current was measured three times before, during and after compound treatment. The data were analyzed using Clampfit 10 software (Molecular Devices) to generate IC50 values.

The compound `FC(F)(F)Oc1ccc(C(F)(F)CN2CCC(Nc3ncnc4[nH]ccc34)CC2)nc1` [US11752155, Compound C-11A'] showed an IC50 at 5 min of 3.8 µM.

One may read the IC50 as the midpoint of a concentration-inhibition curve. A higher IC50 goes with a need for much substance.
